# Data taken from patent publication US20180362766A1, “Fluorogenic pH-Sensitive Dyes and Their Methods of Use” (Life Technologies Corporation, priority 2012, published 2018).
# System: phagocytic J774.2 murine macrophages
# Experiment: No-wash phagocytosis assay with dye-conjugated E. coli bioparticles
# Type: cell-based
# Settings: E. coli bioparticles conjugated to a pH-sensitive fluorescent dye
# Source text: Certain embodiments provide for a no-wash, no-quench assay for phagocytosis that is based on fluorogenic bioparticles comprising the pH-sensitive fluorescent dye compounds provided herein. Current protocols for measuring phagocytosis that use fluorescent bioparticles, require a trypan blue quenching step and several washing steps. These steps can introduce significant variability in the assay. To address this issue, provided herein is a no-wash phagocytosis kit, using E. coli bioparticles conjugated to a pH-sensitive fluorescent dye as described herein. These bioparticle conjugates are weakly fluorescent at extracellular pH. […] The pH-sensitive fluorescent bioparticles described herein may be used in plate based, as well as imaging and flow cytometry assays of phagocytosis.
structure (smiles),measurement,value
"C=C1[C@@H](C)[C@H]2[C@H](Cc3ccccc3)NC(=O)[C@]23[C@H](OC(C)=O)/C=C/[C@@](C)(O)C(=O)[C@@H](C)C/C=C/[C@H]3[C@@H]1O [cytochalaisin D, cytochalasin D]",inhibition of uptake of the bioparticles (phagocytosis),potently inhibited
